Read-outs that look alike come from different tables or passages of the source.
Columns and labels:
Assay type in all cases: in vivo
[1] = test system: Diabrotica balteata (Corn root worm); experiment: Diabrotica balteata (Corn root worm), maize sprouts sprayed, L2 larvae mortality; settings: 96 h, application rate of 200 ppm, L2 larvae on maize sprouts, assessed 4 days after infestation, read-out: control (mortality)
Procedure: Diabrotica balteata (Corn root worm):
Maize sprouts placed onto an agar layer in 24-well microtiter plates were treated with aqueous test solutions prepared from 10,000 ppm DMSO stock solutions by spraying. After drying, the plates were infested with L2 larvae (6 to 10 per well). The samples were assessed for mortality 4 days after infestation.

[2] = test system: Spodoptera littoralis (Egyptian cotton leaf worm); experiment: Spodoptera littoralis (Egyptian cotton leaf worm): Feeding/contact activity; settings: foliar, 72 h, read-out: control (mortality)
Procedure: Spodoptera littoralis (Egyptian cotton leaf worm): Feeding/contact activity Cotton leaf discs were placed onto agar in 24-well microtiter plates and sprayed with aqueous test solutions prepared from 10,000 ppm DMSO stock solutions. After drying the leaf discs were infested with five L1 larvae. The samples were assessed for mortality 3 days after infestation.

[3] = test system: Plutella xylostella (Diamond back moth); experiment: Plutella xylostella (Diamond back moth): Feeding/contact activity; settings: 120 h, application rate of 200 ppm, L2 larvae on artificial diet, assessed 5 days after infestation, read-out: control (mortality)
Procedure: Plutella xylostella (Diamond back moth): Feeding/contact activity
24-well microtiter plates with artificial diet were treated with aqueous test solutions prepared from 10,000 ppm DMSO stock solutions by pipetting. After drying, the plates were infested with L2 larvae (10 to 15 per well). The samples were assessed for mortality 5 days after infestation.

[4] = test system: Euschistus heros (Neotropical Brown Stink Bug); experiment: Euschistus heros (Neotropical Brown Stink Bug): Feeding/contact activity; settings: 120 h, read-out: control (mortality)
Procedure: Euschistus heros (Neotropical Brown Stink Bug): Feeding/contact activity Soybean leaves on agar in 24-well microtiter plates were sprayed with aqueous test solutions prepared from 10,000 ppm DMSO stock solutions. After drying the leaves were infested with N2 nymphs. The samples were assessed for mortality 5 days after infestation.

[5] = test system: Tetranychus urticae (Two-spotted spider mite); experiment: Tetranychus urticae (Two-spotted spider mite): Feeding/contact activity; settings: foliar, 192 h, read-out: control (mortality)
Procedure: Tetranychus urticae (Two-spotted spider mite): Feeding/contact activity
Bean leaf discs on agar in 24-well microtiter plates were sprayed with aqueous test solutions prepared from 10,000 ppm DMSO stock solutions. After drying the leaf discs were infested with a mite population of mixed ages. The samples were assessed for mortality on mixed population (mobile stages) 8 days after infestation.

[6] = test system: Myzus persicae (Green peach aphid); experiment: Myzus persicae (Green peach aphid): Feeding/Contact activity; settings: foliar, 144 h, read-out: control (mortality)
Procedure: Myzus persicae (Green peach aphid): Feeding/Contact activity Sunflower leaf discs were placed onto agar in a 24-well microtiter plate and sprayed with aqueous test solutions prepared from 10,000 ppm DMSO stock solutions. After drying, the leaf discs were infested with an aphid population of mixed ages. The samples were assessed for mortality 6 days after infestation.

[7] = application rate of 200 ppm, L1 larvae on cotton leaf discs, assessed 3 days after infestation
[8] = application rate of 200 ppm, N2 nymphs on soybean leaves, assessed 5 days after infestation
[9] = application rate of 200 ppm, mite population of mixed ages (mobile stages) on bean leaf discs, assessed 8 days after infestation
[10] = application rate of 200 ppm, aphid population of mixed ages on sunflower leaf discs, assessed 6 days after infestation

Measured: mortality at 200 ppm

Cn1c(Br)c(Br)c(Br)c1-n1cc(-c2ccc(Cl)c(C(=O)NC3(C#N)CC3)c2)cn1 [Compound 15, 2-chloro-N-(1-cyanocyclopropyl)-5-[1-(3,4,5-tribromo-1-methyl-pyrrol-2-yl)pyrazol-4-yl]benzamide]
≥ 80%: [1] | [2]; [7] | [3]

Cn1c(-c2cc(-c3ccc(Cl)c(C(=O)NC4(C#N)CC4)c3)on2)ccc1C(F)(C(F)(F)F)C(F)(F)F [Compound 5, 2-chloro-N-(1-cyanocyclopropyl)-5-[3-[1-methyl-5-[1,2,2,2-tetrafluoro-1-(trifluoromethyl)ethyl]pyrrol-2-yl]isoxazol-5-yl]benzamide]
≥ 80%: [1] | [4]; [8] | [2]; [7] | [3] | [5]; [9]

CC(=O)N(C(=O)c1cc(-c2cnn(-c3ccc(C(F)(C(F)(F)F)C(F)(F)F)n3C3CC3)c2)ccc1Cl)C(C)(C)C#N [Compound 35, N-acetyl-2-chloro-N-(1-cyano-1-methyl-ethyl)-5-[1-[1-cyclopropyl-5-[1,2,2,2-tetrafluoro-1-(trifluoromethyl)ethyl]pyrrol-2-yl]pyrazol-4-yl]benzamide]
≥ 80%: [6]; [10] | [4]; [8] | [2]; [7] | [5]; [9]

N#CCn1c(C(F)(C(F)(F)F)C(F)(F)F)cc(Br)c1-n1cc(-c2ccc(Cl)c(C(=O)NC3(C#N)CC3)c2)cn1 [Compound 13, 5-[1-[3-bromo-1-(cyanomethyl)-5-[1,2,2,2-tetrafluoro-1-(trifluoromethyl)ethyl]pyrrol-2-yl]pyrazol-4-yl]-2-chloro-N-(1-cyanocyclopropyl)benzamide]
≥ 80%: [1] | [4]; [8] | [2]; [7] | [3] | [5]; [9]

COC(=O)N(C(=O)c1cc(-c2cnn(-c3ccc(C(F)(C(F)(F)F)C(F)(F)F)n3C3CC3)c2)ccc1Cl)C1(C#N)CC1 [Compound 39, methyl N-[2-chloro-5-[1-[1-cyclopropyl-5-[1,2,2,2-tetrafluoro-1-(trifluoromethyl)ethyl]pyrrol-2-yl]pyrazol-4-yl]benzoyl]-N-(1-cyanocyclopropyl)carbamate]
≥ 80%: [6] | [4]; in Glycine max | [2] | [5]

Cn1c(-n2cc(-c3ccc(Cl)c(C(=O)NC4(C#N)CC4)c3)cn2)ccc1C(F)(C(F)(F)F)C(F)(F)F [Compound 1, 2-chloro-N-(1-cyanocyclopropyl)-5-[1-[1-methyl-5-[1,2,2,2-tetrafluoro-1-(trifluoromethyl)ethyl]pyrrol-2-yl]pyrazol-4-yl]benzamide]
≥ 80%: [1] | [6]; [10] | [4]; [8] | [2]; [7] | [3] | [5]; [9]

Cn1c(C(F)(F)C(F)(F)F)cc(Cl)c1-n1cc(-c2ccc(Cl)c(C(=O)NC3(C#N)CC3)c2)cn1 [Compound 33]
≥ 80%: [1] | [6]; [10] | [4]; [8] | [2]; [7] | [3] | [5]; [9]

Cn1c(C(F)(C(F)(F)F)C(F)(F)F)cc(Br)c1-n1cc(-c2ccc(Cl)c(C(=O)NC3CC3)c2)cn1 [Compound 3, 5-[1-[3-bromo-1-methyl-5-[1,2,2,2-tetrafluoro-1-(trifluoromethyl)ethyl]pyrrol-2-yl]pyrazol-4-yl]-2-chloro-N-cyclopropyl-benzamide]
≥ 80%: [1] | [4]; [8] | [2]; [7] | [3] | [5]; [9]

Cn1c(C(F)(C(F)(F)F)C(F)(F)F)cc(Br)c1-c1cc(-c2ccc(Cl)c(C(=O)NC3(C#N)CC3)c2)on1 [Compound 6, 5-[3-[3-bromo-1-methyl-5-[1,2,2,2-tetrafluoro-1-(trifluoromethyl)ethyl]pyrrol-2-yl]isoxazol-5-yl]-2-chloro-N-(1-cyanocyclopropyl)benzamide]
≥ 80%: [1] | [6]; [10] | [4]; [8] | [2]; [7] | [3] | [5]; [9]

Cn1c(C(F)(F)C(F)(F)F)cc(Br)c1-n1cc(-c2ccc(Cl)c(C(=O)NC3(C#N)CC3)c2)cn1 [Compound 31, 5-[1-[3-bromo-1-methyl-5-(1,1,2,2,2-pentafluoroethyl)pyrrol-2-yl]pyrazol-4-yl]-2-chloro-N-(1-cyanocyclopropyl)benzamide]
≥ 80%: [1] | [6]; [10] | [4]; [8] | [5]; [9]

N#CC1(NC(=O)c2cc(-c3cnn(-c4c(Br)c(Br)c(SC(F)(F)F)n4C4CC4)c3)ccc2Cl)CC1 [Compound 41, 2-chloro-N-(1-cyanocyclopropyl)-5-[1-[3,4-dibromo-1-cyclopropyl-5-(trifluoromethylsulfanyl)pyrrol-2-yl]pyrazol-4-yl]benzamide]
≥ 80%: [1] | [4]; [8] | [2]; [7] | [3] | [5]; [9]

Cn1c(SC(F)(F)F)cc(Cl)c1-n1cc(-c2ccc(Cl)c(C(=O)NC3(C#N)CC3)c2)cn1 [Compound 32, 2-chloro-5-[1-[3-chloro-1-methyl-5-(trifluoromethylsulfanyl)pyrrol-2-yl]pyrazol-4-yl]-N-(1-cyanocyclopropyl)benzamide]
≥ 80%: [1] | [6]; [10] | [4]; [8] | [2]; [7] | [5]; [9]

Cn1c(C(F)(C(F)(F)F)C(F)(F)F)cc([N+](=O)[O-])c1-n1cc(-c2ccc(Cl)c(C(=O)NC3(C#N)CC3)c2)cn1 [Compound 7, 2-chloro-N-(1-cyanocyclopropyl)-5-[1-[1-methyl-3-nitro-5-[1,2,2,2-tetrafluoro-1-(trifluoromethyl)ethyl]pyrrol-2-yl]pyrazol-4-yl]benzamide]
≥ 80%: [2]; [7]

CC(C)(C#N)NC(=O)c1cc(-c2cnn(-c3ccc(C(F)(C(F)(F)F)C(F)(F)F)n3C3CC3)c2)ccc1Cl [Compound 37, 2-chloro-N-(1-cyano-1-methyl-ethyl)-5-[1-[1-cyclopropyl-5-[1,2,2,2-tetrafluoro-1-(trifluoromethyl)ethyl]pyrrol-2-yl]pyrazol-4-yl]benzamide]
≥ 80%: [6]; [10] | [4]; [8] | [2]; [7] | [3] | [5]; [9]

CN(C(=O)c1cc(-c2cnn(-c3ccc(C(F)(C(F)(F)F)C(F)(F)F)n3C3CC3)c2)ccc1Cl)C1(C#N)CC1 [Compound 38, 2-chloro-N-(1-cyanocyclopropyl)-5-[1-[1-cyclopropyl-5-[1,2,2,2-tetrafluoro-1-(trifluoromethyl)ethyl]pyrrol-2-yl]pyrazol-4-yl]-N-methyl-benzamide]
≥ 80%: [6]; [10] | [4]; [8] | [2]; [7] | [3] | [5]; [9]

CC(=O)N(C(=O)c1cc(-c2cnn(-c3ccc(C(F)(C(F)(F)F)C(F)(F)F)n3C3CC3)c2)ccc1Cl)C1(C#N)CC1 [Compound 36, N-acetyl-2-chloro-N-(1-cyanocyclopropyl)-5-[1-[1-cyclopropyl-5-[1,2,2,2-tetrafluoro-1-(trifluoromethyl)ethyl]pyrrol-2-yl]pyrazol-4-yl]benzamide]
≥ 80%: [6]; [10] | [4]; [8] | [2]; [7] | [3] | [5]; [9]

N#CC1(NC(=O)c2cc(-c3cnn(-c4ccc(C(F)(C(F)(F)F)C(F)(F)F)n4C4CC4)c3)ccc2Cl)CC1 [Compound 40, 2-chloro-N-(1-cyanocyclopropyl)-5-[1-[1-cyclopropyl-5-[1,2,2,2-tetrafluoro-1-(trifluoromethyl)ethyl]pyrrol-2-yl]pyrazol-4-yl]benzamide]
≥ 80%: [4]; [8] | [2]; [7] | [3] | [5]; [9]

From US11459318B2, “Pesticidally active pyrrole derivatives” (Syngenta Participations AG, priority 2017, dated 2022)
